Laboratory results reported in article PMC4993479 (PLoS ONE, 2016).
Where two headings read alike, the source gives them in different places.

Experiments:
[1] = In vitro skin diffusion across human epidermis in Franz-type diffusion cells; assay type: in vitro ADME
Procedure: Full thickness human skin samples from patients (26–48 years old females) undergoing abdominoplasty at Perth (WA, Australia) hospitals were refrigerated immediately after surgery. Sampling was approved by the Human Research Ethics Committee of Curtin University and was conducted in compliance with the guidelines of the National Health and Medical Research Council of Australia. Epidermal sheets were obtained and stored as previously described. […] Two hundred μL samples of the receptor phase were withdrawn and replaced with an equal volume of fresh pre-warmed (37°C) 25:75 PG:PBS over an 8 h period and the content analysed by HPLC. […] Permeability coefficients (cm/h) were calculated.

COX-2 = target: T1, COX-2 (Homo sapiens, UniProt P35354); test: COX Fluorescent Inhibitor Screening Assay (COX-2 inhibition); assay type: biochemical; settings: concentration range 0.000155–0.31 mM, 2 min incubation
T1 construct: purchased Cayman Chemical 700100
T1 sequence (P35354 18-604): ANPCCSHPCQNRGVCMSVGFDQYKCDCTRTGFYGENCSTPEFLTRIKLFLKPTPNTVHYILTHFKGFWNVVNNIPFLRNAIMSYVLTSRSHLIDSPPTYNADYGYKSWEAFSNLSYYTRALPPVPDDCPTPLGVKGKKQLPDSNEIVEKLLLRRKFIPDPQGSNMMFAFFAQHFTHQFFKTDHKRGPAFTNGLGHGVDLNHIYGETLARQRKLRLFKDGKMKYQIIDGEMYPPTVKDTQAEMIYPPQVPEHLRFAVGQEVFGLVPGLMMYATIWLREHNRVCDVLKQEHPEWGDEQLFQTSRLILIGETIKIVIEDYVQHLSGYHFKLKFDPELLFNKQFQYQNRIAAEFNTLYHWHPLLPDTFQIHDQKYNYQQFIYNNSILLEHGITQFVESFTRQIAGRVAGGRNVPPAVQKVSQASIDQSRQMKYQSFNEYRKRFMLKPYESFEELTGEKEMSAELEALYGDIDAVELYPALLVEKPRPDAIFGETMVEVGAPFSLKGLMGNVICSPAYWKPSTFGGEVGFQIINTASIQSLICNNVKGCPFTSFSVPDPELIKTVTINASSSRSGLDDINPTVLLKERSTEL

[2] = Uptake/retention in the epidermis by solvent extraction and HPLC after the permeation experiment; settings: human epidermis
Procedure: Briefly, the skin sections were placed in 500 μL methanol and vortexed for 2 min, then transferred to a second 500 μL methanol volume and vortexed for another 2 min. The skin sample was then placed in 1 mL propylene glycol for 1 h with agitation. After centrifuging each extract at 10,000 × g for 10 min, the resultant supernatants were diluted appropriately, quantified by HPLC, and the data combined to give total penetrant in the epidermal section.
Mass balance/recovery after the skin permeation experiments was determined by removing and retaining the donor solution, and washing the epidermal surface, donor and receptor compartments and retaining all washing solutions. The content of all solutions was analysed by HPLC following suitable dilution.

| COX-2 inhibition (in words) (COX-2) | steady state flux ([1]; human epidermis, 300 μL containing 150 μg diclofenac alone or as conjugate in 25:75 PG:PBS, 8 h) [μg/cm^2/h] | Maximum amount permeated ([1]; human epidermis, applied dose 150 μg in 300 μL 25:75 PG:PBS, 8 h) | Amount permeated (% of applied dose) ([1]; human epidermis, applied dose 150 μg, 8 h) | Amount extracted from the skin (% of applied dose) ([2]; applied dose 150 μg) | Amount extracted (skin distribution) ([2]; applied dose 150 μg in 25:75 PG:PBS, after 8 h permeation experiment) | Compound | Amount permeated (% of applied dose) [1] | Maximum amount permeated [1] |
| --- | --- | --- | --- | --- | --- | --- | --- | --- |
| did not demonstrate COX-2 inhibition | – | – | – | – | – | DKP Phe-N-MeNal | 4.33 % of applied dose | 6.50(±1.94) μg/cm^2 |
| – | – | – | – | – | – | CN1C(=O)[C@H](Cc2ccc(NC(=O)Cc3ccccc3Nc3c(Cl)cccc3Cl)cc2)NC(=O)[C@@H]1Cc1ccc2ccccc2c1 [DKP-diclofenac conjugate, DKP Phe(Diclofenac)-N-MeNal] | 4.00 % of applied dose | 6.01(±0.16) μg/cm^2 |
| – | 0.12 | 0.91(±0.15) μg/cm^2 | 0.60 % of applied dose | 5.72 % of applied dose | 8.58(±1.50) μg | O=C(O)Cc1ccccc1Nc1c(Cl)cccc1Cl [Diclofenac, Diclofenac sodium] | – | – |
